# Paper PMC10176470, “Engaging a Non-catalytic Cysteine Residue Drives Potent and Selective Inhibition of Caspase-6” (Journal of the American Chemical Society, 2023)
# Key:
# Format in all cases: cell-based
# [1] = molecular target: proteins of HEK293T cells transiently overexpressing caspase-6 (Homo sapiens, UniProt P04843); conditions: exp_ref Probe; protein RPN1 (P04843); analysis C6
# [2] = molecular target: proteins of HEK293T cells transiently overexpressing caspase-6 (Homo sapiens, UniProt P09874); conditions: protein PARP1 (P09874)
# Sequence of proteins of HEK293T cells transiently overexpressing caspase-6 (Homo sapiens, UniProt P09874) (P09874 whole entry): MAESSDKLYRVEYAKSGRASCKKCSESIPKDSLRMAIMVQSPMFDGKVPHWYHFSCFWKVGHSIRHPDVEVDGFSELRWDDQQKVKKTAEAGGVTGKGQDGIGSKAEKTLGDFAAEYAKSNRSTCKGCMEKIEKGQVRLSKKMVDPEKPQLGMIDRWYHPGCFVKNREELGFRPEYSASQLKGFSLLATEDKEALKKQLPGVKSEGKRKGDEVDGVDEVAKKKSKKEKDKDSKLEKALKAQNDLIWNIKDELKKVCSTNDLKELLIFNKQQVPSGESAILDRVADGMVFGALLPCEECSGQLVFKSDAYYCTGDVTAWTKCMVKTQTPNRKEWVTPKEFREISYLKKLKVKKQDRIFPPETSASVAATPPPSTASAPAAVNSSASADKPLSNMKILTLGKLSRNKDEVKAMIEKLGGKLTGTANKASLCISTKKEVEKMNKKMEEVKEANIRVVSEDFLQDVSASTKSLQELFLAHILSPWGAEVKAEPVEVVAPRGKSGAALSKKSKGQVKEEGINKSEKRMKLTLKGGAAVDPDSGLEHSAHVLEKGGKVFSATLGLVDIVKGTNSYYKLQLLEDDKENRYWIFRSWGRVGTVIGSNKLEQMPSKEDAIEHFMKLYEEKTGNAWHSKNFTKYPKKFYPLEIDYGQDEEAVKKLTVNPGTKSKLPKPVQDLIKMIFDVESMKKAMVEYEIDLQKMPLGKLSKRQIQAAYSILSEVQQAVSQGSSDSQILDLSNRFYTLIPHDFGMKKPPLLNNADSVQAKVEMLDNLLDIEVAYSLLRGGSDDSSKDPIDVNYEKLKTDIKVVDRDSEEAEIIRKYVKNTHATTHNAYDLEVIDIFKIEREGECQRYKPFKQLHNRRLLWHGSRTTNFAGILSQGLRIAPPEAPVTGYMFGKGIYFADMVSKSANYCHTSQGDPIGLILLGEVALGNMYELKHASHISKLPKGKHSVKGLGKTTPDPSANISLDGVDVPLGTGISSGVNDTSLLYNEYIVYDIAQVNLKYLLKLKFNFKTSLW
# [3] = molecular target: proteins of HEK293T cells transiently overexpressing caspase-6 (Homo sapiens, UniProt P11021); conditions: protein HSPA5 (P11021)
# Sequence of proteins of HEK293T cells transiently overexpressing caspase-6 (Homo sapiens, UniProt P11021) (P11021 19-654): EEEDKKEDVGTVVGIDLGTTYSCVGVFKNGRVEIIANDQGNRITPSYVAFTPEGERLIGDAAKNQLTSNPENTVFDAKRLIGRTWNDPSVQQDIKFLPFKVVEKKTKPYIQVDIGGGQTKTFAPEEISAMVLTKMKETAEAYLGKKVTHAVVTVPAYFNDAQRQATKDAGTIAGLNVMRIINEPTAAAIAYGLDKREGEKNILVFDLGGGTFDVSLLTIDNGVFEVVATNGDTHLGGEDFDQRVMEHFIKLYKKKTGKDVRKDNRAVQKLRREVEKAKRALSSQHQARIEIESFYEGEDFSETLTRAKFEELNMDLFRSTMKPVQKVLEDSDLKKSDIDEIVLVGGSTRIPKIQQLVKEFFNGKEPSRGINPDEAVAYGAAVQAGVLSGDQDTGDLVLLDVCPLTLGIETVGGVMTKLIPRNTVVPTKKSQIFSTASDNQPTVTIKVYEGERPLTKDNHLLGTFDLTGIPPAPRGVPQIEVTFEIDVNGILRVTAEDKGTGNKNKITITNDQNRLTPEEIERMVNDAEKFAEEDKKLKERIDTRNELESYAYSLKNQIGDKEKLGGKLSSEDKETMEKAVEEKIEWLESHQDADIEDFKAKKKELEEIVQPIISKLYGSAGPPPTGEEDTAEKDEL
# [4] = molecular target: proteins of HEK293T cells transiently overexpressing caspase-6 (Homo sapiens, UniProt P14618); conditions: protein PKM (P14618)
# Sequence of proteins of HEK293T cells transiently overexpressing caspase-6 (Homo sapiens, UniProt P14618) (P14618 whole entry): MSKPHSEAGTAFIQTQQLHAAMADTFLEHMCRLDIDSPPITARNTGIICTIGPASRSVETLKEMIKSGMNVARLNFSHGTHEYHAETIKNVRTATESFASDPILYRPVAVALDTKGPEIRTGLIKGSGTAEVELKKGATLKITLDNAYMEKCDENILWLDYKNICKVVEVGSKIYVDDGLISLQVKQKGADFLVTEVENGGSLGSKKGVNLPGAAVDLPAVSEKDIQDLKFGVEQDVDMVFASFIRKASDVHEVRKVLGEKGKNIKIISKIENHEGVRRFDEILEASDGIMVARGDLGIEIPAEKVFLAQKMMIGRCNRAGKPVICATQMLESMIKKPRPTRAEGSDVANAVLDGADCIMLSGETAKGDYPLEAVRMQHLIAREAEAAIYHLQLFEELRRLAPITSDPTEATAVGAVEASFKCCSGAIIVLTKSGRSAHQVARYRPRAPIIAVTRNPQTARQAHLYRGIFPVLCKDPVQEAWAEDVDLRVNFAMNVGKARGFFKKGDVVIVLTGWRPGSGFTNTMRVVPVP
# [5] = molecular target: proteins of HEK293T cells transiently overexpressing caspase-6 (Homo sapiens, UniProt P15880); conditions: protein RPS2 (P15880)
# [6] = molecular target: T1, proteins of HEK293T cells transiently overexpressing caspase-6 (Homo sapiens, UniProt P30041); conditions: protein PRDX6 (P30041)
# T1 sequence (P30041 1-224): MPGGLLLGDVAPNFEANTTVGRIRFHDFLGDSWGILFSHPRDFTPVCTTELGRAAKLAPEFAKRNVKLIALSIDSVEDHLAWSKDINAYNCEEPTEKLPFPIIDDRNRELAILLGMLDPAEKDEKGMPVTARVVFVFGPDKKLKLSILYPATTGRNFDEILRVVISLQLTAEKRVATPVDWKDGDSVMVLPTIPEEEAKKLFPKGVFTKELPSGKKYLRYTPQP
# [7] = molecular target: proteins of HEK293T cells transiently overexpressing caspase-6 (Homo sapiens, UniProt P33992); conditions: exp_ref Probe; protein MCM5 (P33992); analysis C6
# [8] = molecular target: proteins of HEK293T cells transiently overexpressing caspase-6 (Homo sapiens, UniProt P35579); conditions: Probe; protein MYH9 P35579
# [9] = molecular target: proteins of HEK293T cells transiently overexpressing caspase-6 (Homo sapiens, UniProt P38646); conditions: protein HSPA9 (P38646)
# Sequence of proteins of HEK293T cells transiently overexpressing caspase-6 (Homo sapiens, UniProt P38646) (P38646 47-679): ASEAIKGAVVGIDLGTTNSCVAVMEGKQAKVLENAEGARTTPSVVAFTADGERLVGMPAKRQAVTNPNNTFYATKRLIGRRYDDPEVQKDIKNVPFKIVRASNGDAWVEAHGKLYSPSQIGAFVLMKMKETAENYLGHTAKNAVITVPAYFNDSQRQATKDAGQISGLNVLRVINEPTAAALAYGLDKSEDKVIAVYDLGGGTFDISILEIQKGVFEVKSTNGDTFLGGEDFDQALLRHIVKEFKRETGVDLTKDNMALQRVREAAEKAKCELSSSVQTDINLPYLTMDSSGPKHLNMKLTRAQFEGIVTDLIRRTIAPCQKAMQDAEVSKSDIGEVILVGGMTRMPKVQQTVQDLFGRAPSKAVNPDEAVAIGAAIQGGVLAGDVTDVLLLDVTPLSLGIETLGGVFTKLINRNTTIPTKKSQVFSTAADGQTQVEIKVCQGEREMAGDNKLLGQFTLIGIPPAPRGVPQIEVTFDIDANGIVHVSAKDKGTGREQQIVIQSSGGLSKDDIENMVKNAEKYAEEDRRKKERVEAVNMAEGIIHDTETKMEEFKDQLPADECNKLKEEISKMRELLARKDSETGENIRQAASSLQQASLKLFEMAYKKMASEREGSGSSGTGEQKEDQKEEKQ
# [10] = molecular target: proteins of HEK293T cells transiently overexpressing caspase-6 (Homo sapiens, UniProt P39023); conditions: exp_ref Probe; protein RPL3 (P39023); analysis C6
# [11] = molecular target: proteins of HEK293T cells transiently overexpressing caspase-6 (Homo sapiens, UniProt P40939); conditions: exp_ref Probe; protein HADHA (P40939); analysis C6
# Sequence of proteins of HEK293T cells transiently overexpressing caspase-6 (Homo sapiens, UniProt P40939) (P40939 37-763): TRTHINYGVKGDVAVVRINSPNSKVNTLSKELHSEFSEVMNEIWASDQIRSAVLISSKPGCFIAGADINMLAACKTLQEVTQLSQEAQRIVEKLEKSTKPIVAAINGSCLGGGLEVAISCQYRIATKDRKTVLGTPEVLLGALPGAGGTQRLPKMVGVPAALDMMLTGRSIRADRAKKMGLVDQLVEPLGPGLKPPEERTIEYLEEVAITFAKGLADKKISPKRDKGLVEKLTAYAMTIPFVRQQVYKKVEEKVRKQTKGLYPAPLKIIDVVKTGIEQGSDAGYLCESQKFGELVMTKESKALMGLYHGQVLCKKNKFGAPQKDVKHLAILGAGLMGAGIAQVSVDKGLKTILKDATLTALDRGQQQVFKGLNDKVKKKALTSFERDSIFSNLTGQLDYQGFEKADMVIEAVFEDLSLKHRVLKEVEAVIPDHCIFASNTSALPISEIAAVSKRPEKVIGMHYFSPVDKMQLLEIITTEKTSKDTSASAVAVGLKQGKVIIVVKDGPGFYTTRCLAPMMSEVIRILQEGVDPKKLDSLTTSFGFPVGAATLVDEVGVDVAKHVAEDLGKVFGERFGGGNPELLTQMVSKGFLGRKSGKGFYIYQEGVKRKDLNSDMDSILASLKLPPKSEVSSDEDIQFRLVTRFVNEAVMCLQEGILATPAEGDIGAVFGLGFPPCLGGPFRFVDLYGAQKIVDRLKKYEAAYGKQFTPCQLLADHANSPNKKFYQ
# [12] = molecular target: proteins of HEK293T cells transiently overexpressing caspase-6 (Homo sapiens, UniProt P41250); conditions: exp_ref Probe; protein GARS (P41250); analysis C6
# Sequence of proteins of HEK293T cells transiently overexpressing caspase-6 (Homo sapiens, UniProt P41250) (P41250 37-739): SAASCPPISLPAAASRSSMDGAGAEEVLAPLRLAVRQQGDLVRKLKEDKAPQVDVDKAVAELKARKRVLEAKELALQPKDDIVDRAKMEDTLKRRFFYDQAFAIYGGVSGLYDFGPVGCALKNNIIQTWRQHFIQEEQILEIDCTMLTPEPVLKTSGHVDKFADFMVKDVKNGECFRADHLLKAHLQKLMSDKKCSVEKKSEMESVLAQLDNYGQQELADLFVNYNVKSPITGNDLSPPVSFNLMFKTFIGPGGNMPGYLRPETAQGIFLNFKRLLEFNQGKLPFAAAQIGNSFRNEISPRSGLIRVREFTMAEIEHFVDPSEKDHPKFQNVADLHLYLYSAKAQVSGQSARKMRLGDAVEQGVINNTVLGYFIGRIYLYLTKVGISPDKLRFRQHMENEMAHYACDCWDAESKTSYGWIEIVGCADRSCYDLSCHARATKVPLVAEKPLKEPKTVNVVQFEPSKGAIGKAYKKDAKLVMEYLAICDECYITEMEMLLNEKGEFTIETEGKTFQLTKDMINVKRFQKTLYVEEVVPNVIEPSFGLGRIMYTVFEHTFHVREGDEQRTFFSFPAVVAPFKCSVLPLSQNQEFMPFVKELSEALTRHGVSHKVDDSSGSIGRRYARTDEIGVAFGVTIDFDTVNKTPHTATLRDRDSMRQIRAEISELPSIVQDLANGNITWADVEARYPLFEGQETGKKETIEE
# [13] = molecular target: proteins of HEK293T cells transiently overexpressing caspase-6 (Homo sapiens, UniProt P52272); conditions: exp_ref Probe; protein HNRNPM (P52272); analysis C6
# [14] = molecular target: T2, proteins of HEK293T cells transiently overexpressing caspase-6 (Homo sapiens, UniProt P54577); conditions: protein YARS (P54577), analysis C6
# T2 sequence (P54577 1-528): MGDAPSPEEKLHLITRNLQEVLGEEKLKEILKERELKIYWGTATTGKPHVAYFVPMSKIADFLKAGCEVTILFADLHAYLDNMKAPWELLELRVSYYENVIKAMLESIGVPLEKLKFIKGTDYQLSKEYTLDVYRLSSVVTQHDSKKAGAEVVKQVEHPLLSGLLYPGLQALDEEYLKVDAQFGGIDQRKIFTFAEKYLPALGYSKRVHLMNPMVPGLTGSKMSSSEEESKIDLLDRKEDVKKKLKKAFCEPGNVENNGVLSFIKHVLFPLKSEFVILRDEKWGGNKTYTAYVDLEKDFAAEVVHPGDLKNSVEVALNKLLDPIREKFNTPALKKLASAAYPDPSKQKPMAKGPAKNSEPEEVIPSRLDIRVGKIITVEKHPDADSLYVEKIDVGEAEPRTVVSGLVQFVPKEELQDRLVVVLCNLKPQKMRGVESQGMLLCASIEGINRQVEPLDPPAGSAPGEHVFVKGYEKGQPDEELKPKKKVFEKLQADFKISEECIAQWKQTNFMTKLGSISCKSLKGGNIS
# [15] = molecular target: proteins of HEK293T cells transiently overexpressing caspase-6 (Homo sapiens, UniProt P55884); conditions: exp_ref Probe; protein EIF3B (P55884); analysis C6
# Sequence of proteins of HEK293T cells transiently overexpressing caspase-6 (Homo sapiens, UniProt P55884) (P55884 whole entry): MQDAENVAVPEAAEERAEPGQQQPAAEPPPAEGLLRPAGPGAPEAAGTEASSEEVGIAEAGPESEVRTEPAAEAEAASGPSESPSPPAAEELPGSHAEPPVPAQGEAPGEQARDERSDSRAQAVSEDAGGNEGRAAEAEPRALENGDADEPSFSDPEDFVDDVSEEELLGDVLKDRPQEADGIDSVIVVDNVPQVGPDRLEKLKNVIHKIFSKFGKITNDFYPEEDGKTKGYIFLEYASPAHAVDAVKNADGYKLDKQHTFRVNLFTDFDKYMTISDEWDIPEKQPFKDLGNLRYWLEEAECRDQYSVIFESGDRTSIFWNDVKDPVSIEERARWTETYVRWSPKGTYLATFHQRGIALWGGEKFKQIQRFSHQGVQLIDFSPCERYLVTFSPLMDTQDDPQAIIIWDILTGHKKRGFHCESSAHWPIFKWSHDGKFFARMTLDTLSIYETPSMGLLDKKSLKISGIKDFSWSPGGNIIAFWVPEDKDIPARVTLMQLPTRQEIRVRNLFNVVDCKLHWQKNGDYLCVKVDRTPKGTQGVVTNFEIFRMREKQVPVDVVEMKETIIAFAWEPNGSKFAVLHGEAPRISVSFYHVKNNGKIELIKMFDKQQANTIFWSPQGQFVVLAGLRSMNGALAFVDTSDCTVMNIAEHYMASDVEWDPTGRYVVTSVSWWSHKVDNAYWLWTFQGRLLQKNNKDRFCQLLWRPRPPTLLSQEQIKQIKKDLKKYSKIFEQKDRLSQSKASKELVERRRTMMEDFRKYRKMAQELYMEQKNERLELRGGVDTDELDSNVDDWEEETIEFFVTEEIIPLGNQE
# [16] = molecular target: proteins of HEK293T cells transiently overexpressing caspase-6 (Homo sapiens, UniProt Q12906); conditions: exp_ref Probe; protein ILF3 (Q12906); analysis C6
smiles,measurement,setting,value
C#CCOc1ccc([C@@H]2C[C@@H](C(=O)Nc3ccc(OC(F)(F)F)cc3)CN(S(=O)(=O)C=C)C2)cc1 (relative stereo) [13-t],enrich.exp.med,[1],1.117
same,enrich.exp.med,"[2]; exp_ref Probe, analysis C6",0.2769
same,enrich.exp.med.lin,[2],1.2116
same,enrich.exp.med.log2,[2],0.2769
same,enrich.exp.med,"[3]; exp_ref Probe, analysis C6",0.9475
same,enrich.exp.med.lin,[3],1.929
same,enrich.exp.med.log2,[3],0.9475
same,enrich.exp.med,"[4]; exp_ref Probe, analysis C6",0.4939
same,enrich.exp.med.lin,[4],1.408
same,enrich.exp.med.log2,[4],0.4939
same,enrich.exp.med,"[5]; exp_ref Probe, analysis C6",0.988
same,enrich.exp.med.lin,[5],1.9835
same,enrich.exp.med.log2,[5],0.988
same,enrich.exp.med,"[6]; exp_ref Probe, analysis C6",0.7015
same,enrich.exp.med.lin,[6],1.626
same,enrich.exp.med.log2,[6],0.7015
same,enrich.exp.med,[7],1.028
same,enrich.exp.med,[8],-0.6242
same,enrich.exp.med,"[9]; exp_ref Probe, analysis C6",0.7965
same,enrich.exp.med.lin,[9],1.737
same,enrich.exp.med.log2,[9],0.7965
same,enrich.exp.med,[10],-0.06221
same,enrich.exp.med,[11],0.4567
same,enrich.exp.med,[12],1.008
same,enrich.exp.med,[13],0.2991
same,enrich.exp.med.lin,[14]; Expt Probe,10.7591
same,enrich.exp.med.log2,[14]; Expt Probe,3.427
same,enrich.exp.med,[14]; exp_ref Probe,3.427
same,enrich.exp.med,[15],0.2575
same,enrich.exp.med,[16],0.1427
